In ChEMBL document CHEMBL2040726, “The effects of aminoguanidine on retinopathy in STZ-induced diabetic rats” (Bioorg Med Chem Lett, 2012):
Activity calls are given as the source filed them. The calls are words filed in the database; no cut-off is given here.

Assays:
[1] = system: Rattus norvegicus; assay: Antiretinopathic activity in Sprague-Dawley rat streptozotocin-induced diabetic model assessed as effect on retinal pericyte cell count at 50 mg/kg/day administered with drinking water after 6 months by hematoxylin and eosin staining; type: functional, organism-based
[2] = system: Rattus norvegicus; assay: Antiretinopathic activity in Sprague-Dawley rat streptozotocin-induced diabetic model assessed as effect on retinal pericyte cell count at 50 mg/kg/day administered with drinking water after 3 months by hematoxylin and eosin staining; type: functional, organism-based
[3] = system: Rattus norvegicus; assay: Antiretinopathic activity in Sprague-Dawley rat streptozotocin-induced diabetic model assessed as effect on retinal endothelial cell count at 50 mg/kg/day administered with drinking water after 6 months by hematoxylin and eosin staining; type: functional, organism-based
[4] = system: Rattus norvegicus; assay: Antiretinopathic activity in Sprague-Dawley rat streptozotocin-induced diabetic model assessed as reduction of retinal advanced glycated end products positive area at 50 mg/kg/day administered with drinking water after 6 months by immunohistochemistry analysis (reference value: 78.70 +/- 7.11%); type: functional; set-up: scale not given: the % may be the effect or the level left
[5] = system: Rattus norvegicus; assay: Toxicity in normal Sprague-Dawley rat assessed as retinal advanced glycated end products positive area at 50 mg/kg/day administered with drinking water after 6 months by immunohistochemistry analysis (reference value: 0.75 +/- 0.94%); type: organism-based; details: in vivo
[6] = system: Rattus norvegicus; assay: Antiretinopathic activity in Sprague-Dawley rat streptozotocin-induced diabetic model assessed as effect on retinal endothelial cell count at 50 mg/kg/day administered with drinking water after 3 months by hematoxylin and eosin staining; type: functional, organism-based
[7] = system: Rattus norvegicus; assay: Antidiabetic activity in Sprague-Dawley rat streptozotocin-induced diabetic model assessed as reduction of body weight at 50 mg/kg/day administered with drinking water after 3 months (reference value: 206.00 +/- 52.59 g); type: functional
[8] = system: Rattus norvegicus; assay: Toxicity in normal Sprague-Dawley rat assessed as effect on ratio of retinal endothelial cell count to pericyte cell count at 50 mg/kg/day administered with drinking water after 6 months by hematoxylin and eosin staining (reference value: 3.58 +/- 0.61); type: organism-based; details: in vivo
[9] = system: Rattus norvegicus; assay: Toxicity in normal Sprague-Dawley rat assessed as effect on retinal endothelial cell count at 50 mg/kg/day administered with drinking water after 6 months by hematoxylin and eosin staining; type: organism-based; details: in vivo
[10] = system: Rattus norvegicus; assay: Antiretinopathic activity in Sprague-Dawley rat streptozotocin-induced diabetic model assessed as reduction of retinal advanced glycated end products positive area at 50 mg/kg/day administered with drinking water after 3 months by immunohistochemistry analysis (reference value: 69.20 +/- 10.75%); type: functional; set-up: scale not given: the % may be the effect or the level left
[11] = system: Rattus norvegicus; assay: Antiretinopathic activity in Sprague-Dawley rat streptozotocin-induced diabetic model assessed as increase of retinal electron density of basement membrane at 50 mg/kg/day administered with drinking water after 6 months by transmission electron microscopic analysis; type: functional, organism-based
[12] = system: Rattus norvegicus; assay: Antidiabetic activity in Sprague-Dawley rat streptozotocin-induced diabetic model assessed as reduction of fasting blood glucose level at 50 mg/kg/day administered with drinking water after 3 months (reference value: 20.99 +/- 4.13 mmol/L); type: functional
[13] = system: Rattus norvegicus; assay: Toxicity in normal Sprague-Dawley rat assessed as effect on retinal pericyte cell count at 50 mg/kg/day administered with drinking water after 6 months by hematoxylin and eosin staining; type: organism-based; details: in vivo
[14] = system: Rattus norvegicus; assay: Effect on fasting blood glucose level in normal Sprague-Dawley rat 50 mg/kg/day administered with drinking water after 6 months (reference value: 5.51 +/- 1.06 mmol/L); type: functional
[15] = system: Rattus norvegicus; assay: Toxicity in normal Sprague-Dawley rat assessed as retinal advanced glycated end products positive area at 50 mg/kg/day administered with drinking water after 3 months by immunohistochemistry analysis (reference value: 0.64 +/- 0.87%); type: organism-based; details: in vivo
[16] = system: Rattus norvegicus; assay: Effect on fasting blood glucose level in normal Sprague-Dawley rat 50 mg/kg/day administered with drinking water after 3 months (reference value: 5.68 +/- 0.96 mmol/L); type: functional
[17] = system: Rattus norvegicus; assay: Antiretinopathic activity in Sprague-Dawley rat streptozotocin-induced diabetic model assessed as swollen of retinal pericyte mitochondria and endothelial cells at 50 mg/kg/day administered with drinking water after 6 months by transmission electron microscopic analysis; type: functional, organism-based; details: Endothelial cell
[18] = system: Rattus norvegicus; assay: Toxicity in normal Sprague-Dawley rat assessed as effect on retinal pericyte cell count at 50 mg/kg/day administered with drinking water after 3 months by hematoxylin and eosin staining; type: organism-based; details: in vivo
[19] = system: Rattus norvegicus; assay: Toxicity in normal Sprague-Dawley rat assessed as reduction of body weight at 50 mg/kg/day administered with drinking water after 3 months (reference value: 561.00 +/- 32.04 g); type: organism-based; details: in vivo
[20] = system: Rattus norvegicus; assay: Toxicity in normal Sprague-Dawley rat assessed as reduction of body weight at 50 mg/kg/day administered with drinking water after 6 months (reference value: 547.50 +/- 36.23 g); type: organism-based; details: in vivo
[21] = system: Rattus norvegicus; assay: Antiretinopathic activity in Sprague-Dawley rat streptozotocin-induced diabetic model assessed as ratio of retinal endothelial cell count to pericyte cell count at 50 mg/kg/day administered with drinking water after 3 months by hematoxylin and eosin staining (reference value: 3.25 +/- 0.27); type: functional
[22] = system: Rattus norvegicus; assay: Toxicity in normal Sprague-Dawley rat assessed as effect on retinal endothelial cell count at 50 mg/kg/day administered with drinking water after 3 months by hematoxylin and eosin staining; type: organism-based; details: in vivo
[23] = system: Rattus norvegicus; assay: Toxicity in normal Sprague-Dawley rat assessed as effect on ratio of retinal endothelial cell count to pericyte cell count at 50 mg/kg/day administered with drinking water after 3 months by hematoxylin and eosin staining (reference value: 2.89 +/- 0.76); type: organism-based; details: in vivo
[24] = system: Rattus norvegicus; assay: Antidiabetic activity in Sprague-Dawley rat streptozotocin-induced diabetic model assessed as reduction of body weight at 50 mg/kg/day administered with drinking water after 6 months (reference value: 254.50 +/- 123.03 g); type: functional
[25] = system: Rattus norvegicus; assay: Antiretinopathic activity in Sprague-Dawley rat streptozotocin-induced diabetic model assessed as ratio of retinal endothelial cell count to pericyte cell count at 50 mg/kg/day administered with drinking water after 6 months by hematoxylin and eosin staining (reference value: 10.91 +/- 3.34); type: functional
[26] = system: Rattus norvegicus; assay: Antidiabetic activity in Sprague-Dawley rat streptozotocin-induced diabetic model assessed as reduction of fasting blood glucose level at 50 mg/kg/day administered with drinking water after 6 months (reference value: 20.20 +/- 5.51 mmol/L); type: functional

## N=C(N)NN [PIMAGEDINE]
[1]
  Activity: inactive
[2]
  Activity: inactive
[3]
  Activity: inactive
[4]
  Activity: 9.16%
[5]
  Activity: 3.27%
[6]
  Activity: inactive
[7]
  Activity: 219.5 g
[8]
  Ratio: 3.46
[9]
  Activity: Non-toxic
[10]
  Activity: 12.71%
[11]
  Activity: inactive
[12]
  Activity: 21.89 mmol/L
[13]
  Activity: Non-toxic
[14]
  Activity: 5.07 mmol/L
[15]
  Activity: 1.33%
[16]
  Activity: 5.23 mmol/L
[17]
  Activity: Active
[18]
  Activity: Non-toxic
[19]
  Activity: 536.5 g
[20]
  Activity: 553 g
[21]
  Ratio: 3.06
[22]
  Activity: Non-toxic
[23]
  Ratio: 2.95
[24]
  Activity: 284.5 g
[25]
  Ratio: 3.71
[26]
  Activity: 21.74 mmol/L
